From patent US20190111158A1, “INJECTION COMPOSITION FOR LABELING LESION” (NATIONAL CANCER CENTER, priority 2016, published 2019)

Columns and labels:
[1] = near-infrared fluorescence signal intensity of ICG-MAA complexes at various ICG/MAA mixing ratios; format: physicochemical; settings: for near-infrared fluorescence signal intensity: MAA 0 mg/mL
[2] = cited from earlier work

near-infrared fluorescence signal intensity ([1]; ICG 1.3 (μN)): 18 | near-infrared fluorescence signal intensity ([1]; ICG 3.9 (μN)): 120 | near-infrared fluorescence signal intensity ([1]; ICG 6.5 (μN)): 212 | near-infrared fluorescence signal intensity ([1]; ICG 9.0 (μN)): 289 | near-infrared fluorescence signal intensity ([1]; ICG 12.9 (μN)): 363 | near-infrared fluorescence signal intensity ([1]; ICG 25.8 (μN)): 466 | near-infrared fluorescence signal intensity ([1]; ICG 38.7 (μN)): 425 | near-infrared fluorescence signal intensity ([1]; ICG 51.6 (μN)): 399 | near-infrared fluorescence signal intensity ([1]; ICG 64.5 (μN)): 374 | near-infrared fluorescence signal intensity ([1]; ICG 77.4 (μN)): 332 | near-infrared fluorescence signal intensity ([1]; ICG 103 (μN)): 289 | near-infrared fluorescence signal intensity ([1]; ICG 258 (μN)): 139 | near-infrared fluorescence signal intensity ([1]; ICG 516 (μN)): 71 | near-infrared fluorescence signal intensity ([1]; ICG 774 (μN)): 39 | near-infrared fluorescence signal intensity ([1]; ICG 1032 (μN)): 30 | ICG concentration with the highest value of near-infrared fluorescence signal intensity ([1]; MAA was not treated): 25.8 µM
Structure (SMILES): CC1(C)C(/C=C/C=C/C=C/C=C2\N(CCCCS(=O)(=O)O)c3ccc4ccccc4c3C2(C)C)=[N+](CCCCS(=O)(=O)[O-])c2ccc3ccccc3c21 [ICG, indocyanine green]
clinical safety ([2]; 18 breast cancer patients (T. Kitai, et al., Breast Cancer, 12:211-215, 2005)): safe clinical use | elimination after injection into the human body ([2]; human body): decomposed and disappears or is excreted in the urine or feces within an hour
